Experimental data: US10191062B2, “Model gut system” (priority 2013, dated 2019)

What was measured:
[1] = fatty acid released from the triglyceride substrate; cited from earlier work
lipase = assay: Glyceryl trioctanoate digestion in the model gut system (MGS), glycerol release; format: biochemical, porcine; settings: 2 mmol glyceryl trioctanoate; Orlistat at 2.5, 5 and 10 mg vs control digestion; FIG. 6
Procedure: Fresh porcine bile was extracted from fresh procine gall bladders (collected on ice from abattoir). Approximately 50 gall bladders were collected per batch. The collected bile was pooled, mixed and frozen down in 25 ml aliquots for storage, as 25 ml is required for each replicate.
Glyceryl trioctanoate was used as the tryglyceride substrate for all assays of fat digestion reported herein. In these experiments, 2 mmol (0.94136 g) of glyceryl trioctanoate was added to the synthetic saliva preparations at T[−10] wherein T[−10] means 10 minutes prior to addition of the synthetic saliva to the test system.
At T[−10], salivary preparations containing substrate/sample/controls were prepared as indicated hereinbefore and incubated for 10 minutes on rollers. […]
In all the experiments, data samples of 0.5 ml were taken at T0, T5, T10, T15, T30, T45, T60, T60^B, T65, T70, T75, T90, T105, T120, T150 and T180, wherein (T60^B) represents a second sample at T60 which was taken after the addition of fresh porcine bile. […] The test samples were stored at 4° C. overnight to allow for precipitation and then centrifuged at 10,000 r.p.m. for 10 minutes, after which the supernatant was analysed. […]
Triglyceride digestion can be measured using ZenBio Glycerol Reagent A to quantify the release of glycerol. A 5 μl of sample was incubated with 80 μl Reagent A for 30 minutes and colour development was measured at 550 nm. […]

Structure (SMILES) | pKa [1] | total glycerol recovered from the model gut system after TCA precipitation (lipase)
CCCC(=O)O [Butyric Acid] | 4.84 | 
CCCCCCCCCCC[C@@H](C[C@@H]1OC(=O)[C@H]1CCCCCC)OC(=O)[C@H](CC(C)C)NC=O [Orlistat] |  | varies in accordance with the level of Orlistat
CCCCCCCCCCCCCCCC(=O)O [Palmitic Acid] | 9.7 | 
CCCCCCCC/C=C\CCCCCCCC(=O)O [Oleic Acid] | 9.95 | 
CCCCCCCCCCCCCCCCCC(=O)O [Stearic Acid] | 10.15 | 
